From ChEMBL document CHEMBL3045823, “Synthesis and Herbicidal Activities of the O-Syn and O-Anti Benzyl Epoxycyclopentyl Ethers” (2004)
Activity calls are given as the source filed them. No cut-off for these calls is given here.

How the values were obtained:
Echinochloa oryzicola [1] = experiment: Herbicide activity against Echinochloa oryzicola assessed as inhibition of growth of first sheath compound treated to seeds measured after 7 days; format: functional
Echinochloa oryzicola [2] = experiment: Herbicide activity against Echinochloa oryzicola assessed as inhibition of root growth compound treated to seeds measured after 7 days; format: functional
Echinochloa oryzicola [3] = experiment: Herbicide activity against Echinochloa oryzicola assessed as inhibition of shoot growth compound treated at 3 ppm to seeds measured after 7 days; format: functional, organism-based
Echinochloa oryzicola [4] = experiment: Herbicide activity against Echinochloa oryzicola assessed as inhibition of root growth compound treated at 3 ppm to seeds measured after 7 days; format: functional, organism-based

SMILES	growth inhibition (GI) (Echinochloa oryzicola [1])	I50 (Echinochloa oryzicola [2])	growth inhibition (GI) (Echinochloa oryzicola [3])	growth inhibition (GI) (Echinochloa oryzicola [4])	I50 (Echinochloa oryzicola [1])
CCCCC[C@]12O[C@H]1CC[C@H]2OCc1ccccc1C (racemic)	Active	0.25 ppm			
CCCCC[C@@]12O[C@@H]1CC[C@H]2OCc1ccccc1C (racemic)	Active		inactive	inactive	
CCCCC[C@]12O[C@H]1CC[C@H]2OCc1ccccc1 (racemic)		0.03 ppm			0.2 ppm
CCCCC[C@@]12O[C@@H]1CC[C@H]2OCc1ccccc1 (racemic)	Active		inactive	inactive	
CCCCC[C@@]12O[C@@H]1CC[C@H]2OCc1ccccc1F (racemic)	Active		inactive	inactive	
CCCCC[C@@]12O[C@@H]1CC[C@H]2OCc1ccccc1Cl (racemic)	Active		inactive	inactive	
CCCCC[C@]12O[C@H]1CC[C@H]2OCc1ccccc1F (racemic)		0.03 ppm			0.2 ppm
CCCCC[C@]12O[C@H]1CC[C@H]2OCc1ccccc1Cl (racemic)	Active	0.5 ppm			
